Laboratory results as given in PubChem BioAssay (NCI).
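A five-concentration, 48-hour dose response in 96-well plates underlies each endpoint, interpolated linearly between surrounding concentrations. TGI: concentration producing complete growth inhibition.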

Tests used:
Test in all cases: NCI-60 cell line screen, 48 h
CAKI-1 renal = test system: CAKI-1 renal
DU-145 prostate = test system: DU-145 prostate
HCC-2998 colon = test system: HCC-2998 colon
HOP-62 NSCLC = test system: HOP-62 NSCLC
MDA-MB-231 breast = test system: MDA-MB-231 breast
MDA-MB-435 = test system: MDA-MB-435
NCI/ADR-RES ovarian = test system: NCI/ADR-RES ovarian
OVCAR-4 ovarian = test system: OVCAR-4 ovarian
RXF 393 renal = test system: RXF 393 renal
SF-539 CNS = test system: SF-539 CNS
SW-620 colon = test system: SW-620 colon
TK-10 renal = test system: TK-10 renal

Measured: TGI

CCOP(=O)(OCC)/C(C#N)=C/c1c(C)[nH]c2ccccc12
> 100 µM: all assays above

CCOC1SC(SC)=NN1C(=O)C(OC(C)=O)C(OC(C)=O)C(OC(C)=O)C(OC(C)=O)C(=O)N1N=C(SC)SC1OCC (centres undefined)
> 100 µM: all assays above
